Marks after values point to notes of the source that are not given here.
How the values were obtained:
[1] = system: Adipocytes (3T3-L1); test: Fatty acid oxidation (3H-palmitate) in 3T3-L1 adipocytes; format: cell-based; details: leucine 0.5 mM, resveratrol 200 nM
Protocol: High glucose medium reduced fatty acid oxidation by 46% (p<0.05).
Fatty acid oxidation was measured using ^3H-labeled palmitate oxidation, with the ^3H label trapped as water as a result of the fat oxidation. The ^3H was then measured via scintillation counter.

[2] = Body weight, weight gain and visceral adiposity in diet-induced obese mice; format: in vivo; details: 6 weeks on diet
Excerpt: (§1) Six week old male c57/BL6 mice were fed a high-fat diet with fat increased to 45% of energy (Research Diets D12451) for 6 weeks to induce obesity.
(§2) At the of the treatment period (6 weeks) all animals were humanely euthanized, and blood and tissues collected for further experiments.

[3] = MicroPET/CT glucose and palmitate uptake in diet-induced obese mice; format: in vivo; details: 6 weeks on diet
Excerpt: as §1
MicroPET/CT (Glucose and Palmitate Uptake): At the end of the treatment period (6 weeks of treatment) subgroups of each treatment diet group (5 animals/group, 35 animals total) were used to measure whole body glucose and palmitate uptake via PET/CT Imaging. To visualize these compounds using microPET imaging, the glucose or palmitate was labeled with fluorine-18 (108 mins half life) or carbon-11 (20 mins half life), respectively. Each mouse was fasted for 4 hours, then anesthetized using 1-3% isoflurane delivered by nose cone or in a mouse-sized induction chamber purpose-built for small animal imaging protocols. While under anesthesia the mice were injected iv with <2 mCi of each tracer, then be left for a period of time (minutes to up ˜1 hour) to allow the uptake of the tracer. During the scan, mice were kept warm using a thermostatically controlled heated bed and were treated with ophthalmic ointment prior to scanning. Following the live scan the mice were returned to their cage and revived. Mice were monitored constantly during this time. Following live data acquisition the mice were sacrificed by isoflurane overdose and organs harvested for further experiments.

[4] = Oxygen consumption/substrate utilization (metabolic chambers) in diet-induced obese mice; format: in vivo
Protocol: as §1
Oxygen Consumption/Substrate Utilization: at the end of the obesity induction period (day 0 of treatment group) and at 2 weeks and 6 weeks of treatment, oxygen consumption and substrate utilization was measured via metabolic chambers using the Comprehensive Lab Animal Monitoring Systems (CLAMS, Columbus Instruments, Columbus, Ohio) in subgroups of each treatment group. Each animal was placed in individual cages without bedding that allow automated, non-invasive data collection. Each cage is an indirect open circuit calorimeter that provides measurement of oxygen consumption, carbon dioxide production, and concurrent measurement of food intake. All mice were acclimatized to the chambers for 24 hours prior to the experiment and maintained under the regular 12:12 light:dark cycle with free access to water and food. All experiments were started in the morning and data were collected for 24 hours. Each chamber was passed with 0.6 l of air/min and was sampled for 2 min at 32-minute intervals. Exhaust O2 and CO2 content from each chamber was compared with ambient O2 and CO2 content. Food consumption was measured by electronic scales.

[5] = Indices of insulin sensitivity (plasma glucose, insulin, HOMAIR) in diet-induced obese mice; format: in vivo; details: 6 weeks on diet; for Glucose (mM) / Insulin (μU/mL): plasma
Excerpt: Insulin sensitivity can be measured using a variety of techniques, including HOMAIR. HOMAIR, which is the homeostasis model assessment of insulin resistance can be used as a screening index of changes in insulin sensitivity. HOMAIR can be calculated via standard formula from fasting plasma insulin and glucose as follows: HOMAIR=[Insulin (uU/mL)×glucose (mM)]/22.5.
as §1, §2

[6] = system: C-reactive protein; test: Inflammatory biomarker C-reactive protein in diet-induced obese mice; format: in vivo; details: 6 weeks on diet
[7] = system: IL-6; test: Inflammatory biomarker IL-6 in diet-induced obese mice; format: in vivo; details: 6 weeks on diet
[8] = system: MCP-1; test: Inflammatory biomarker MCP-1 in diet-induced obese mice; format: in vivo; details: 6 weeks on diet
[9] = system: Adiponectin; test: Adiponectin in diet-induced obese mice; format: in vivo; details: 6 weeks on diet
[10] = target: T1, Sirt1 (Mus musculus, UniProt Q923E4); test: Adipose tissue Sirt1 activity in diet-induced obese mice; format: in vivo
T1 construct: from tissue; host or cells: adipose tissue of c57/BL6 mice
T1 sequence (Q923E4 1-737): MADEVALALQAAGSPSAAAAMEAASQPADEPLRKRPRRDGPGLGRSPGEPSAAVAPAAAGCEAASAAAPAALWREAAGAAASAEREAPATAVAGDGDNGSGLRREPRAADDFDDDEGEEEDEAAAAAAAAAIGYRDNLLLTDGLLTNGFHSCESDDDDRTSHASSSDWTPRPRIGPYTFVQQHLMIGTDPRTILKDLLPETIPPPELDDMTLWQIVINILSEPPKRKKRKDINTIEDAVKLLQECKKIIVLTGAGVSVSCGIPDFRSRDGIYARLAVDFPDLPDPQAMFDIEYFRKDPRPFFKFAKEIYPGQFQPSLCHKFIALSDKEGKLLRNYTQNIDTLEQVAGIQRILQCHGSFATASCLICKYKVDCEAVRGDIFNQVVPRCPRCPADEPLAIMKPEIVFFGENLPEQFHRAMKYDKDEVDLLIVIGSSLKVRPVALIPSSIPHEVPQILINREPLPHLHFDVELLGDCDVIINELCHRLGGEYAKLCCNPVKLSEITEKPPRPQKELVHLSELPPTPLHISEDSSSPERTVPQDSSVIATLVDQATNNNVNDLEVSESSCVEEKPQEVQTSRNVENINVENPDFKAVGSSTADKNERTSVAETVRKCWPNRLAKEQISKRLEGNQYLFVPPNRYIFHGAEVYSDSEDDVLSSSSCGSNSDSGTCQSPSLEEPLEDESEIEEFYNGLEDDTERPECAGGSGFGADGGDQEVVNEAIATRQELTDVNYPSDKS

[11] = system: SIRT1; test: Sirt1 activity (fluorimetric kit), Example 5; format: cell-based; details: leucine 0.5 mM, HMB 5 μM, resveratrol 200 nM; summary in Example 5
Protocol: Sirt1 Activity: SIRT1 activity was measured by using the SIRT1 Fluorimetric Drug Discovery Kit (BML-AK555, ENZO Life Sciences International, Inc. PA, USA). The assay measures SIRT1 activity by the degree of deacetylation of a standardized substrate containing an acetylated lysine side chain. The substrate utilized is a peptide containing […] of human […]]), an established target of SIRT1 activity; SIRT1 activity is directly proportional to the degree of deacetylation of […]. Samples were incubated with peptide substrate (25 μM), and NAD^+ (500 μM) in a phosphate-buffered saline solution at 37° C. on a horizontal shaker for 45 minutes. The reaction was stopped with the addition of 2 mM nicotinamide and a developing solution that binds to the deacetylated lysine to form a fluorophore.

[12] = system: irisin; test: Plasma irisin in diet-induced obese mice; format: in vivo; details: six weeks, resveratrol 12.5 mg/kg diet, leucine 2.42%
Protocol: as §1
As described in Example 5, C2C12 myotubes treated with the indicated combinations of compounds were used to produce conditioned media, with which 3T3-L1 adipocytes were then treated. Fatty acid oxidation was measured as in Example 5. Irisin levels were measured by Western blot and ELISA, both in conditioned media and in plasma from mice treated according to Example 4.
ELISA: Irisin was also detected in C2C12 incubation media from treated cells and in mouse plasma using a commercial enzyme immunoassay kit obtained from Phoenix Pharmaceuticals, Inc. (Burlingame, Calif.). This kit uses an irisin (FNDC5 [16-127] fragment) and streptavidin-horseradish peroxidase detection on a microplate reader at 450 nm.

[13] = system: UCP1; test: Subcutaneous adipose UCP1 mRNA expression in diet-induced obese mice; format: in vivo; details: six weeks, resveratrol 12.5 mg/kg diet
[14] = high resveratrol 225 mg/kg diet
[15] = low resveratrol 12.5 mg/kg diet, low HMB 2 g CaHMB/kg diet, high HMB 10 g CaHMB/kg diet, leucine 2.42% of diet

Compound: Oc1ccc(/C=C/c2cc(O)cc(O)c2)cc1 [resveratrol, 3,5,4′-Trihydroxy-trans-stilbene]
- increase in fatty acid oxidation, high glucose ([1]; high (25 mM) glucose, 4 hours, HMB 5 uM, vs. control): no effect
- stimulation of fatty acid oxidation ([1]; HMB 5 μM, summary in Example 5): no effect
- Visceral Adipose Volume (mm^3) [2, 14]: 6031 ± 323^a mm^3
- Weight (g) [2, 14]: 38.7 ± 1.2^a g
- Weight gain (g) [2, 14]: 22.3 ± 2.4^a g
- Visceral Adipose Volume (mm^3) [2, 15]: 6551 ± 575^a mm^3
- Weight (g) [2, 15]: 40.8 ± 2.5^a g
- Weight gain (g) [2, 15]: 20.9 ± 1.5^a g
- Fat oxidation (PET palmitate uptake; Muscle SUV) [3, 14]: 2.29 ± 0.11^b SUV
- Muscle Glucose Uptake (18F-deoxyglucose SUV) [3, 14]: 3.87 ± 0.32^a SUV
- Fat oxidation (PET palmitate uptake; Muscle SUV) [3, 15]: 1.51 ± 0.44^a SUV
- Muscle Glucose Uptake (18F-deoxyglucose SUV) [3, 15]: 3.63 ± 1.29^a SUV
- Heat Production [4, 14]: 0.552 ± 0.015^b
- Heat Production [4, 15]: 0.517 ± 0.014^a
- HOMAIR [5, 14]: 0.59 ± 0.26^b
- HOMAIR [5, 15]: 2.41 ± 0.66^a
- Glucose (mM) [5, 14]: 5.14 ± 0.75^a mM
- Insulin (μU/mL) [5, 14]: 10.1 ± 2.7^a μU/mL
- Glucose (mM) [5, 15]: 5.14 ± 0.85^a mM
- Insulin (μU/mL) [5, 15]: 10.4 ± 1.6^a μU/mL
- C-reactive protein (ng/mL) [6, 14]: 123.9 ± 35.3^a ng/mL
- C-reactive protein (ng/mL) [6, 15]: 134.8 ± 8.5^a ng/mL
- IL-6 (pg/mL) [7, 14]: 14.1 ± 1.3^b pg/mL
- IL-6 (pg/mL) [7, 15]: 23.2 ± 2.9^a pg/mL
- MCP-1 (pg/mL) [8, 14]: 27.3 ± 6.8^b pg/mL
- MCP-1 (pg/mL) [8, 15]: 104.4 ± 16.5^a pg/mL
- Adiponectin (ng/mL) [9, 14]: 14.8 ± 1.8^b ng/mL
- Adiponectin [9, 15]: 12.4 ± 1.1 ng/mL
- adipose tissue Sirt1 activity ([10]; high dose resveratrol (FIG. 10)): non-significant trend towards an increase
- adipose tissue Sirt1 activity ([10]; low dose of resveratrol, HMB, or their combinations with HMB or leucine (FIG. 10)): Neither resveratrol nor HMB exerted significant independent effects
- stimulation of Sirt1 activity [11]: no effect
- increase in plasma irisin [12]: no independent effect
- increase in UCP1 expression in white subcutaneous adipose tissue [13]: no independent effect

Source: patent publication US8623924B2, “Compositions and methods for modulating metabolic pathways” (Nusirt Sciences, Inc., priority 2011, dated 2014)
